# Source: patent US4118418A, “5-Phenenyltris (ureylene) triisophthalic acid salts” (American Cyanamid Company, priority 1977, dated 1978)
# Counter-ions that a name gives are not always drawn.
# Experiments:
# activated human C1 [1] = biological target: T1, activated human C1 (Homo sapiens, UniProt P09871); test: Intrinsic Therapeutic Index (Code 026 C1 inhibitor test versus anti-coagulant test); conditions: Table II
# Excerpt: The computation of an Intrinsic Therapeutic Index (ITI) was devised to correlate the results expressed in wells, obtained in the in vitro Code 026 (C1 inhibitor) test and the in vitro anti-coagulant (AC) test into a meaningful value which would aid in the net evaluation of the activity of the compounds of this invention.
# The ITI is thus a measure of the separation of anti-complement and anti-coagulant activities; the higher the numerical value the more therapeutically useful the separation of activities.
# activated human C1 [2] = biological target: T1, activated human C1; test: Test, Code 026 (C1 inhibitor); format: biochemical; conditions: Table II; highest active serial dilution
# Excerpt: (§1) An active inhibitor protects C2 from C1 and C4; (ii) Test, Code O35 (C3-C9 inhibitor) -- This test determines the ability of the late components of human complement (C3-C9) to lyse EAC l42 in the presence of appropriate dilutions of the test compound. An active inhibitor protects EAC 142 from lysis by human C3-C9; (iii) Test, Code 036 (C-Shunt inhibitor) -- In this test human erythrocytes rendered fragile are lysed in autologous serum via the shunt pathway activated by cobra venom factor in the presence of appropriate dilutions of the test compound. Inhibition of the shunt pathway results in failure of lysis; (iv) Forssman Vasculitis Test -- Here, the well known complement dependent lesion, Forssman vasculitis, is produced in guinea pigs by intradermal injection of rabbit anti-Forssman antiserum. […]
# whole complement = test: Complement Level Reduction Test, whole complement in serum of dosed guinea pigs by capillary tube assay; format: in vivo; conditions: i.p., 200 mg/kg
# Excerpt: An active inhibitor protects C2 from C1 and C4; (ii) Test, Code O35 (C3-C9 inhibitor) -- This test determines the ability of the late components of human complement (C3-C9) to lyse EAC l42 in the presence of appropriate dilutions of the test compound. An active inhibitor protects EAC 142 from lysis by human C3-C9; (iii) Test, Code 036 (C-Shunt inhibitor) -- In this test human erythrocytes rendered fragile are lysed in autologous serum via the shunt pathway activated by cobra venom factor in the presence of appropriate dilutions of the test compound. Inhibition of the shunt pathway results in failure of lysis; (iv) Forssman Vasculitis Test -- Here, the well known complement dependent lesion, Forssman vasculitis, is produced in guinea pigs by intradermal injection of rabbit anti-Forssman antiserum. The lesion is measured in terms of diameter, edema and hemorrhage and the extent to which a combined index of these is inhibited by prior intraperitoneal injection of the test compound at 200 mg/kg is then reported, unless otherwise stated; (v) Forssman Shock Test -- Lethal shock is produced in guinea pigs by an i.v. injection of anti-Forssman antiserum and the harmonic mean death time of treated guinea pigs is compared with that of simultaneous controls; (vi) Complement Level Reduction Test -- In this test, the above dosed guinea pigs, or others, are bled for serum and the complement level is determined in undiluted serum by the capillary tube method of U.S. Pat. No. 3,876,376 and compared to undosed control guinea pigs; and (vii) Cap 50 Test -- Here, appropriate amounts of the test compound are added to a pool of guinea pig serum in vitro, after which the undiluted serum capillary tube assay referred to above is run. The concentration of compound inhibiting 50% is reported.
# With reference to Table I, guinea pigs weighing about 300 g were dosed intravenously (i.v.) or intraperitoneally (i.p.) with 200 mg/kg of the test compound dissolved in saline and adjusted to pH 7-8. […] Percent inhibition was calculated by comparison with simultaneous controls. […]
# Citrated sheep plasma = test: in vitro anti-coagulant activity (AC), clotting of recalcified citrated sheep plasma; format: biochemical
# Method: The sheep RBC's, kept in suspension throughout the clotting incubation time, become enmeshed in the fibrin matrix if a clot forms. Upon centrifugation of the plate, untrapped RBC's form buttons, the sizes of which correspond to the degree of clot inhibition; this providing a measure of anti-coagulant activity (AC). Sodium heparin is used as a positive control and activity is reported in wells appearing in Table I.
# **Activity in wells a serial dilution assay. Higher well number indicates
# higher activity. The serial dilutions are two-fold.
# [3] = tested on: shunt pathway activated by cobra venom factor; test: Test, Code 036 (C-Shunt inhibitor), lysis of human erythrocytes in autologous serum via shunt pathway; format: cell-based; conditions: Table I; two-fold serial dilutions
# Excerpt: as §1
# complement system = conditions: literature; cited from earlier work
# [4] = tested on: hereditary angioneurotic edema; conditions: New England Journal of Medicine, 286, 808-812 (1972); cited from earlier work
# [5] = tested on: human serum total hemolytic complement; conditions: in vitro and in vivo, reduction in total hemolytic complement activity; Pathologie Biologie, 25, 33-36 (1977); cited from earlier work
# T1 sequence (P09871 16-688): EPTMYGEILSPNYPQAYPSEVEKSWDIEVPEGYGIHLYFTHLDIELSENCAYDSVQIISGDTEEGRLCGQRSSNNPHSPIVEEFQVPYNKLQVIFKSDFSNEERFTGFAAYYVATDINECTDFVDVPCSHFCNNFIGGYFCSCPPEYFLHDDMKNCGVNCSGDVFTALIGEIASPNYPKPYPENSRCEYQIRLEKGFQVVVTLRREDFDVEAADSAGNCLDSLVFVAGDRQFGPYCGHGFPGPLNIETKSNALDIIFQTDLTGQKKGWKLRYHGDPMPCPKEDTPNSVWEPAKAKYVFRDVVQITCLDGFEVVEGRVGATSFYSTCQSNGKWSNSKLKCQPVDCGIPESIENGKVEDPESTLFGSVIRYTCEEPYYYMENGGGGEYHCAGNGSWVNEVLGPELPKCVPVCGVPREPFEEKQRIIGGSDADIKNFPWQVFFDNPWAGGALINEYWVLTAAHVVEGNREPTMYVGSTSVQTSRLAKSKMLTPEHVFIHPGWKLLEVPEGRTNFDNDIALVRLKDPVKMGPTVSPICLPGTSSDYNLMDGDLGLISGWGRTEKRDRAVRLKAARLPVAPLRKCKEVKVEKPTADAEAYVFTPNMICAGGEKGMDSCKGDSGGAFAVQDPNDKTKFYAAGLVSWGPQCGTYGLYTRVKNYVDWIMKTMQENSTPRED
# T1 sequence (P00736 18-705 partner): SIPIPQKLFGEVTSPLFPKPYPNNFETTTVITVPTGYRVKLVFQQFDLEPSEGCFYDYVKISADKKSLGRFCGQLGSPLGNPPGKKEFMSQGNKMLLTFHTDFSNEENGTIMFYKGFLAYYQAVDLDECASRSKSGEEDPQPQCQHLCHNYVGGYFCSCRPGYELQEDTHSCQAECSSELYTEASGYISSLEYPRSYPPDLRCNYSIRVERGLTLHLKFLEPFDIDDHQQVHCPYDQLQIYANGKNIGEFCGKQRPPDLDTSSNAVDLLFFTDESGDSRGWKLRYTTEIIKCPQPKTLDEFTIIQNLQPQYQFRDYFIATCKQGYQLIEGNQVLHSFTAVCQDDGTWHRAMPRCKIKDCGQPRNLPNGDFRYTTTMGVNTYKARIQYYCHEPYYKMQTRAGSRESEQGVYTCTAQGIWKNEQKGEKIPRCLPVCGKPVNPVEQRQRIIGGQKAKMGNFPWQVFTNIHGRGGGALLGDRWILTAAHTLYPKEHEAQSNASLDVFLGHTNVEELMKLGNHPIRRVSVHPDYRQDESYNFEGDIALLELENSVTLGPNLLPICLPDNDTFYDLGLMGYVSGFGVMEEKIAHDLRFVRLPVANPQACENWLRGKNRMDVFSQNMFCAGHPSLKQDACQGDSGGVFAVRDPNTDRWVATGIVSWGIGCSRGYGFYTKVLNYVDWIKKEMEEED
# T1 sequence (P02745 23-245 partner): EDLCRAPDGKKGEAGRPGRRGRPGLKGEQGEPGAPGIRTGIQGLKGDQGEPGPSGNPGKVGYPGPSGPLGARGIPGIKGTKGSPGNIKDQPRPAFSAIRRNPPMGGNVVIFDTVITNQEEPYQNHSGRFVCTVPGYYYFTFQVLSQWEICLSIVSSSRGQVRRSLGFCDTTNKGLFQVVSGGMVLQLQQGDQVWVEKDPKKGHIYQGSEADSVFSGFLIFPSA
# T1 sequence (P02746 28-253 partner): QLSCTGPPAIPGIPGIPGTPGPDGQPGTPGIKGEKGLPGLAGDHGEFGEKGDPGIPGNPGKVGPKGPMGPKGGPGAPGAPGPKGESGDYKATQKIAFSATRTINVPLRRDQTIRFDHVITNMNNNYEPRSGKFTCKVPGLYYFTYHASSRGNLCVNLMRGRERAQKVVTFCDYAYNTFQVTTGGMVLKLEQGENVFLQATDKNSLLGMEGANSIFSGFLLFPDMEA
# T1 sequence (P02747 29-245 partner): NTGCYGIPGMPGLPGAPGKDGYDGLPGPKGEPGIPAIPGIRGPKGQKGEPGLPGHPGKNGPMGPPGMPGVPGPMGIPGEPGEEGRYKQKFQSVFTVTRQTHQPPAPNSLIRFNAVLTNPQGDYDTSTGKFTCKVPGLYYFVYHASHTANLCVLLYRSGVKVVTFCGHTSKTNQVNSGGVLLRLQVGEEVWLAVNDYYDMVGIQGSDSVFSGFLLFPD
molecule,measurement,setting,value
"O=C(Nc1cc(NC(=O)Nc2cc(C(=O)O)cc(C(=O)O)c2)cc(NC(=O)Nc2cc(C(=O)O)cc(C(=O)O)c2)c1)Nc1cc(C(=O)O)cc(C(=O)O)c1 [5,5',5""-(s-Phenenyltriureylene)triisophthalic acid hexasodium salt]",Intrinsic Therapeutic Index,activated human C1 [1]; antilogarithm (base 2) of the difference in wells,256
same,Logarithmic Difference Expressed as Wells,activated human C1 [1]; log (base 2) difference Code 026 minus AC,+8 Wells
same,"In Vitro Activity, Complement Inhibiting Activity (Wells) Code 026",activated human C1 [2],+6 Wells
same,"In Vivo Activity (Guinea Pig) % Inhibition, Intraperitoneal, 30 mins.",whole complement; 30 mins.,-43%
same,"In Vivo Activity (Guinea Pig) % Inhibition, Intraperitoneal, 60 mins.",whole complement; 60 mins.,-9%
same,"In Vivo Activity (Guinea Pig) % Inhibition, Intraperitoneal, 120 mins.",whole complement; 120 mins.,-41%
same,AC Wells,"Citrated sheep plasma; Table I, anti-coagulant activity, two-fold serial dilutions",< -2 Wells
same,"In Vitro Activity, Anti-Coagulant Activity (Wells) AC","Citrated sheep plasma; Table II, highest active serial dilution",-2 Wells
same,Shunt Inhibition 036 Wells,[3],+1 Wells
Cc1ccc(C(=O)Nc2ccc(S(=O)(=O)O)c3cc(S(=O)(=O)O)cc(S(=O)(=O)O)c23)cc1NC(=O)c1cccc(NC(=O)Nc2cccc(C(=O)Nc3cc(C(=O)Nc4ccc(S(=O)(=O)O)c5cc(S(=O)(=O)O)cc(S(=O)(=O)O)c45)ccc3C)c2)c1 [Suramin],anticomplementary effect / complement inhibition,complement system,competitive inhibitor of the complement system
same,use in treatment of hereditary angioneurotic edema,[4],used with success
"Nc1ccc2cc(S(=O)(=O)O)cc(O)c2c1N=Nc1ccc(NC(=O)Nc2ccc(N=Nc3c(N)ccc4cc(S(=O)(=O)O)cc(O)c34)c(S(=O)(=O)O)c2)cc1S(=O)(=O)O [chlorazol fast pink, 3,3'-ureylenebis-[6-(2-amino-8-hydroxy-6-sulfo-1-naphthylazo)]benzenesulfonic acid, tetrasodium salt]",anticomplementary effect / complement inhibition,complement system,anticomplementary effect
NCCCCCC(=O)O [epsilon-aminocaproic acid],use in treatment of hereditary angioneurotic edema,[4],used with success
NC[C@H]1CC[C@H](C(=O)O)CC1 [tranexamic acid],use in treatment of hereditary angioneurotic edema,[4],used with success
heparin,anticomplementary effect / complement inhibition,complement system,anticomplementary effect
pentosan-poly-sulfoester,anticomplementary activity on human serum,[5],anticomplementary activity on human serum both in vitro and in vivo
